Measurements: patent US20230141101A1, “PDE4 INHIBITOR COMPOUND AND MEDICAL USE THEREOF” (Suzhou Longbotai Pharmaceuticals Co., Ltd., priority 2020, published 2023)

Tests used:
Type in all cases: biochemical
Conditions in all cases: 20 nM
PDE4B1 = target: T1, PDE4B1 (Homo sapiens, UniProt Q07343); assay: PDE4 inhibitory activity assay (FAM-cAMP enzymatic reaction), PDE4B1
T1 construct: purchased BPS 60041
In short: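 Each isoform is incubated with test compound for 15 min at room temperature before FAM-cAMP substrate starts a 30-min reaction.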

PDE4D2 = PDE4D2 (Homo sapiens, UniProt Q08499); assay: PDE4 inhibitory activity assay (FAM-cAMP enzymatic reaction), PDE4D2
In short: (§1)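 Inhibition rates from a fluorescence read gave IC50 values. Each enzyme (PDE4A1A, PDE4B1, PDE4D2) sat with compound for 15 min at room temperature; FAM-cAMP then started a 30 min room-temperature reaction, ended with stop solution and left 60 min more.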

PDE4A1A = target: T2, PDE4A1A (Homo sapiens, UniProt P27815); assay: PDE4 inhibitory activity assay (FAM-cAMP enzymatic reaction), PDE4A1A
T2 construct: purchased BPS 60040
In short: as §1

T2 sequence (P27815 1-647 isoform P27815-4): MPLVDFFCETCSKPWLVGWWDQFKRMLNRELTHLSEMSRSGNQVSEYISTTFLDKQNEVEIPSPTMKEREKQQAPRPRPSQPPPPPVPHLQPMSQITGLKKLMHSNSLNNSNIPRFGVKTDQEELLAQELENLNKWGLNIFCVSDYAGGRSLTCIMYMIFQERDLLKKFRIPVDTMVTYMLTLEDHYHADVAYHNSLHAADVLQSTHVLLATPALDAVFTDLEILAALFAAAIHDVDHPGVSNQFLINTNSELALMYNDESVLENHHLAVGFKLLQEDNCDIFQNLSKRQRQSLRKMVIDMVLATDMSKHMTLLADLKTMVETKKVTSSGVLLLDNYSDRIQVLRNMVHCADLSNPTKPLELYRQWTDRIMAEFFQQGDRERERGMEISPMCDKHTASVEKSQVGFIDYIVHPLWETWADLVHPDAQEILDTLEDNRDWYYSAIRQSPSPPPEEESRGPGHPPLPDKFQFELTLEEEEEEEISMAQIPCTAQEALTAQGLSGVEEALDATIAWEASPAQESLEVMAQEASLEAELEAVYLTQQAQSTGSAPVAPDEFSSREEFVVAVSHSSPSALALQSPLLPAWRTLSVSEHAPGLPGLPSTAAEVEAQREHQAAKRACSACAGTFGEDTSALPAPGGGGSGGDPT
T1 sequence (Q07343 whole entry): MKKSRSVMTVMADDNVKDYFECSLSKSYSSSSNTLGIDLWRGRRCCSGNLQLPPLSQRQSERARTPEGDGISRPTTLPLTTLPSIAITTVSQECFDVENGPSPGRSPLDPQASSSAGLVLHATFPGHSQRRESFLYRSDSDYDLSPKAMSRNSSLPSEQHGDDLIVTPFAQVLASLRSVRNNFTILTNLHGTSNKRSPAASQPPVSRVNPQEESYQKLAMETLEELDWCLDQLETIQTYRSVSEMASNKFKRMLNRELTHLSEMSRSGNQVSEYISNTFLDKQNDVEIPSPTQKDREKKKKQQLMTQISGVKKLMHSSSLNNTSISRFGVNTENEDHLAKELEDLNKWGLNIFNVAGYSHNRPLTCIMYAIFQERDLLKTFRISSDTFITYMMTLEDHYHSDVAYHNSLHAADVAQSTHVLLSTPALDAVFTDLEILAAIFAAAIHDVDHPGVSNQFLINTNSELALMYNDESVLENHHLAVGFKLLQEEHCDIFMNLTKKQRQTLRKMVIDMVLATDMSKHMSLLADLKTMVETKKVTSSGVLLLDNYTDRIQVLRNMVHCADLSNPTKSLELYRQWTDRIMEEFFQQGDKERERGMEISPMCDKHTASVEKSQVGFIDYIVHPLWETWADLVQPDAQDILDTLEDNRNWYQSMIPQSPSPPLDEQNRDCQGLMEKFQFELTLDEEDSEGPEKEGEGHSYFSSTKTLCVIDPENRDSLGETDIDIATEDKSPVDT
Sequence of PDE4D2 (Q08499 303-809): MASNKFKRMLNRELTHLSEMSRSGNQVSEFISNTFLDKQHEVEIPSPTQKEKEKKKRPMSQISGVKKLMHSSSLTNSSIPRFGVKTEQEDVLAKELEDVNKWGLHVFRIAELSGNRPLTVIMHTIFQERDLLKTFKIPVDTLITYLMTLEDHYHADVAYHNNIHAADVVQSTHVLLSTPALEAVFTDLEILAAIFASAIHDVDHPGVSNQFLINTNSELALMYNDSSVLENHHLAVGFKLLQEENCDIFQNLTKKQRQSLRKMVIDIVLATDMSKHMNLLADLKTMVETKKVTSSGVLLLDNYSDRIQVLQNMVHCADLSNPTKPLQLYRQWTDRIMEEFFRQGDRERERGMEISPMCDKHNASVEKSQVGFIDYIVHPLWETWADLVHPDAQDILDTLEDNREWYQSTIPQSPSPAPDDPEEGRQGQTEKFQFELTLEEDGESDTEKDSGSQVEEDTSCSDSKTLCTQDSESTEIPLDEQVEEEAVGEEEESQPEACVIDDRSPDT

CCOC(=O)c1ccc2c(c1)[nH]c(=O)n2[C@H](CS(C)(=O)=O)c1ccc(OC)c(OCC)n1 [Ex. 212, (S)-ethyl 1-(1-(6-ethoxy-5-methoxypyridin-2-yl)-2-(methylsulfonyl)ethyl)-2-oxo-2,3-dihydro-1H-benzo[d]imidazole-5-carboxylate]
PDE4 B1 inhibitory effect at 20 nM (PDE4B1): +
PDE4 D2 inhibitory effect at 20 nM (PDE4D2): +
PDE4 A1 inhibitory effect at 20 nM (PDE4A1A): +

CCOc1nc([C@@H](CS(C)(=O)=O)n2c(=O)[nH]c3cc(C(=O)OC(C)C)ccc32)ccc1OC [Ex. 213, (S)-isopropyl 1-(1-(6-ethoxy-5-methoxypyridin-2-yl)-2-(methylsulfonyl)ethyl)-2-oxo-2,3-dihydro-1H-benzo[d]imidazole-5-carboxylate]
PDE4 B1 inhibitory effect at 20 nM (PDE4B1): +
PDE4 D2 inhibitory effect at 20 nM (PDE4D2): +
PDE4 A1 inhibitory effect at 20 nM (PDE4A1A): +

CCOc1nc([C@@H](CS(C)(=O)=O)n2c(=O)[nH]c3cc(C(=O)OCC(F)(F)F)ccc32)ccc1OC [Ex. 214, (S)-2,2,2-trifluoroethyl 1-(1-(6-ethoxy-5-methoxypyridin-2-yl)-2-(methylsulfonyl)ethyl)-2-oxo-2,3-dihydro-1H-benzo[d]imidazole-5-carboxylate]
PDE4 B1 inhibitory effect at 20 nM (PDE4B1): +
PDE4 D2 inhibitory effect at 20 nM (PDE4D2): +
PDE4 A1 inhibitory effect at 20 nM (PDE4A1A): +

CCOc1nc([C@@H](CS(C)(=O)=O)N2Cc3cccc(NC(C)=O)c3C2=O)ccc1OC [Ex. 215, (S)—N-(2-(1-(6-ethoxy-5-methoxypyridin-2-yl)-2-(methylsulfonyl)ethyl)-3-oxoisoindolin-4-yl)acetamide]
PDE4 B1 inhibitory effect at 20 nM (PDE4B1): +
PDE4 D2 inhibitory effect at 20 nM (PDE4D2): +
PDE4 A1 inhibitory effect at 20 nM (PDE4A1A): +

CCOc1nc([C@H](CS(C)(=O)=O)N2Cc3cccc(NC(C)=O)c3C2=O)ccc1OC [Ex. 216, (R)—N-(2-(1-(6-ethoxy-5-methoxypyridin-2-yl)-2-(methylsulfonyl)ethyl)-3-oxoisoindolin-4-yl)acetamide]
PDE4 B1 inhibitory effect at 20 nM (PDE4B1): +
PDE4 D2 inhibitory effect at 20 nM (PDE4D2): +
PDE4 A1 inhibitory effect at 20 nM (PDE4A1A): +

CCOc1nc([C@@H](CS(C)(=O)=O)N2Cc3cccc(NC(=O)C4CC4)c3C2=O)ccc1OC [Ex. 217, (S)—N-(2-(1-(6-ethoxy-5-methoxypyridin-2-yl)-2-(methylsulfonyl)ethyl)-3-oxoisoindolin-4-yl)cyclopropanecarboxamide]
PDE4 B1 inhibitory effect at 20 nM (PDE4B1): +
PDE4 D2 inhibitory effect at 20 nM (PDE4D2): +
PDE4 A1 inhibitory effect at 20 nM (PDE4A1A): +

CCOc1nc([C@H](CS(C)(=O)=O)N2Cc3cccc(NC(=O)C4CC4)c3C2=O)ccc1OC [Ex. 218, (R)—N-(2-(1-(6-ethoxy-5-methoxypyridin-2-yl)-2-(methylsulfonyl)ethyl)-3-oxoisoindolin-4-yl)cyclopropanecarboxamide]
PDE4 B1 inhibitory effect at 20 nM (PDE4B1): +
PDE4 D2 inhibitory effect at 20 nM (PDE4D2): +
PDE4 A1 inhibitory effect at 20 nM (PDE4A1A): +

CCOc1nc([C@@H](CS(C)(=O)=O)N2Cc3cccc(NC(=O)CC)c3C2=O)ccc1OC [Ex. 219, (S)—N-(2-(1-(6-ethoxy-5-methoxypyridin-2-yl)-2-(methylsulfonyl)ethyl)-3-oxoisoindolin-4-yl)propionamide]
PDE4 B1 inhibitory effect at 20 nM (PDE4B1): +
PDE4 D2 inhibitory effect at 20 nM (PDE4D2): +
PDE4 A1 inhibitory effect at 20 nM (PDE4A1A): +

CCOc1nc([C@H](CS(C)(=O)=O)N2Cc3cccc(NC(=O)CC)c3C2=O)ccc1OC [Ex. 220, (R)—N-(2-(1-(6-ethoxy-5-methoxypyridin-2-yl)-2-(methylsulfonyl)ethyl)-3-oxoisoindolin-4-yl)propionamide]
PDE4 B1 inhibitory effect at 20 nM (PDE4B1): −
PDE4 D2 inhibitory effect at 20 nM (PDE4D2): −
PDE4 A1 inhibitory effect at 20 nM (PDE4A1A): −

CCOc1nc(C(CS(C)(=O)=O)N2C(=O)c3csc([N+](=O)[O-])c3C2=O)ccc1OC (stereo not drawn) [Ex. 221, 5-(1-(6-ethoxy-5-methoxypyridin-2-yl)-2-(methylsulfonyl)ethyl)-1-nitro-4H-thieno[3,4-c]pyrrol-4,6(5H)-dione]
PDE4 B1 inhibitory effect at 20 nM (PDE4B1): +
PDE4 D2 inhibitory effect at 20 nM (PDE4D2): +
PDE4 A1 inhibitory effect at 20 nM (PDE4A1A): +

CCOc1nc([C@@H](CS(C)(=O)=O)N2C(=O)c3csc([N+](=O)[O-])c3C2=O)ccc1OC [Ex. 222, (S)-5-(1-(6-ethoxy-5-methoxypyridin-2-yl)-2-(methylsulfonyl)ethyl)-1-nitro-4H-thieno[3,4-c]pyrrol-4,6(5H)-dione]
PDE4 B1 inhibitory effect at 20 nM (PDE4B1): +
PDE4 D2 inhibitory effect at 20 nM (PDE4D2): +
PDE4 A1 inhibitory effect at 20 nM (PDE4A1A): +

CCOc1nc([C@@H](CS(C)(=O)=O)N2C(=O)c3csc(N)c3C2=O)ccc1OC [Ex. 223, (S)-1-amino-5-(1-(6-ethoxy-5-methoxypyridin-2-yl)-2-(methylsulfonyl)ethyl)-4H-thieno[3,4-c]pyrrol-4,6 (5H)-dione]
PDE4 B1 inhibitory effect at 20 nM (PDE4B1): +
PDE4 D2 inhibitory effect at 20 nM (PDE4D2): +
PDE4 A1 inhibitory effect at 20 nM (PDE4A1A): +

CCOc1nc(C(CS(C)(=O)=O)N2C(=O)c3csc(NC(C)=O)c3C2=O)ccc1OC (stereo not drawn) [Ex. 224, N-(5-(1-(6-ethoxy-5-methoxypyridin-2-yl)-2-(methylsulfonyl)ethyl)-4,6-dioxo-5,6-dihydro-4H-thieno[3,4-c]pyrrol-1-yl)acetamide]
PDE4 B1 inhibitory effect at 20 nM (PDE4B1): +
PDE4 D2 inhibitory effect at 20 nM (PDE4D2): +
PDE4 A1 inhibitory effect at 20 nM (PDE4A1A): +

CCOc1nc([C@H](CS(C)(=O)=O)N2C(=O)c3csc(NC(C)=O)c3C2=O)ccc1OC [Ex. 225, (R)—N-(5-(1-(6-ethoxy-5-methoxypyridin-2-yl)-2-(methylsulfonyl)ethyl)-4,6-dioxo-5,6-dihydro-4H-thieno[3,4-c]pyrrol-1-yl)acetamide]
PDE4 B1 inhibitory effect at 20 nM (PDE4B1): −
PDE4 D2 inhibitory effect at 20 nM (PDE4D2): −
PDE4 A1 inhibitory effect at 20 nM (PDE4A1A): −

CCOc1nc([C@@H](CS(C)(=O)=O)N2C(=O)c3csc(NC(=O)CC)c3C2=O)ccc1OC [Ex. 226, (S)—N-(5-(1-(6-ethoxy-5-methoxypyridin-2-yl)-2-(methylsulfonyl)ethyl)-4,6-dioxo-5,6-dihydro-4H-thieno[3,4-c]pyrrol-1-yl)propionamide]
PDE4 B1 inhibitory effect at 20 nM (PDE4B1): +
PDE4 D2 inhibitory effect at 20 nM (PDE4D2): +
PDE4 A1 inhibitory effect at 20 nM (PDE4A1A): +

CCOc1nc([C@@H](CS(C)(=O)=O)N2C(=O)c3csc(NC(=O)C4CC4)c3C2=O)ccc1OC [Ex. 227, (S)—N-(5-(1-(6-ethoxy-5-methoxypyridin-2-yl)-2-(methylsulfonyl)ethyl)-4,6-dioxo-5,6-dihydro-4H-thieno[3,4-c]pyrrol-1-yl)cyclopropanecarboxamide]
PDE4 B1 inhibitory effect at 20 nM (PDE4B1): +
PDE4 D2 inhibitory effect at 20 nM (PDE4D2): +
PDE4 A1 inhibitory effect at 20 nM (PDE4A1A): +
